Experimental findings from article PMC9519552, “Activation of the human insulin receptor by non-insulin-related peptides” (Nature Communications, 2022) are described below.

The target of assay [1] is T1, human holoIR-A over-expressed in HEK293 cells (Homo sapiens, UniProt P06213).
T1 construct: expressed in transfected cells; host or cells: HEK293, stably transfected
The assay is described as follows: Inhibition of hIR phosphorylation by peptides, co-incubated with BHI at its EC50 (ELISA). It is filed as cell-based. The conditions noted are these: for hIRA Phosph IC50 Run 1 / hIRA Phosph IC50 Run 2 / hIRA Phosph IC50 Run 3: inhibition of insulin-stimulated phosphorylation; for hIRA Phosph IC50 Run 1: BHI at its EC50, run 1; for hIRA Phosph IC50 Run 2: BHI at its EC50, run 2; for hIRA Phosph IC50 Run 3: BHI at its EC50, run 3; for IC50: read-out: hIRA Phosph IC50 Mean. Put shortly: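 Phosphorylation ELISA (TMB, A450) after anti-C9 capture of lysates from stably transfected HEK293 cells expressing C-terminally C9-tagged human holoIR-A, serum-starved overnight in 0.1% BSA/DMEM. Percent specific response versus log concentration, from three independent runs on three days.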
(In general: In an ELISA, binding on a coated surface is turned into a signal by an enzyme label.)

For assay [2], the target named is T2, human IR-A (holoIR-A) (Homo sapiens, UniProt P06213).
T2 construct: expressed in transfected cells; host or cells: HEK293 (ATCC #CRL-1573), stably transfected; membrane preparation
T2 sequence (P06213 28-1370 isoform P06213-2 limits assumed): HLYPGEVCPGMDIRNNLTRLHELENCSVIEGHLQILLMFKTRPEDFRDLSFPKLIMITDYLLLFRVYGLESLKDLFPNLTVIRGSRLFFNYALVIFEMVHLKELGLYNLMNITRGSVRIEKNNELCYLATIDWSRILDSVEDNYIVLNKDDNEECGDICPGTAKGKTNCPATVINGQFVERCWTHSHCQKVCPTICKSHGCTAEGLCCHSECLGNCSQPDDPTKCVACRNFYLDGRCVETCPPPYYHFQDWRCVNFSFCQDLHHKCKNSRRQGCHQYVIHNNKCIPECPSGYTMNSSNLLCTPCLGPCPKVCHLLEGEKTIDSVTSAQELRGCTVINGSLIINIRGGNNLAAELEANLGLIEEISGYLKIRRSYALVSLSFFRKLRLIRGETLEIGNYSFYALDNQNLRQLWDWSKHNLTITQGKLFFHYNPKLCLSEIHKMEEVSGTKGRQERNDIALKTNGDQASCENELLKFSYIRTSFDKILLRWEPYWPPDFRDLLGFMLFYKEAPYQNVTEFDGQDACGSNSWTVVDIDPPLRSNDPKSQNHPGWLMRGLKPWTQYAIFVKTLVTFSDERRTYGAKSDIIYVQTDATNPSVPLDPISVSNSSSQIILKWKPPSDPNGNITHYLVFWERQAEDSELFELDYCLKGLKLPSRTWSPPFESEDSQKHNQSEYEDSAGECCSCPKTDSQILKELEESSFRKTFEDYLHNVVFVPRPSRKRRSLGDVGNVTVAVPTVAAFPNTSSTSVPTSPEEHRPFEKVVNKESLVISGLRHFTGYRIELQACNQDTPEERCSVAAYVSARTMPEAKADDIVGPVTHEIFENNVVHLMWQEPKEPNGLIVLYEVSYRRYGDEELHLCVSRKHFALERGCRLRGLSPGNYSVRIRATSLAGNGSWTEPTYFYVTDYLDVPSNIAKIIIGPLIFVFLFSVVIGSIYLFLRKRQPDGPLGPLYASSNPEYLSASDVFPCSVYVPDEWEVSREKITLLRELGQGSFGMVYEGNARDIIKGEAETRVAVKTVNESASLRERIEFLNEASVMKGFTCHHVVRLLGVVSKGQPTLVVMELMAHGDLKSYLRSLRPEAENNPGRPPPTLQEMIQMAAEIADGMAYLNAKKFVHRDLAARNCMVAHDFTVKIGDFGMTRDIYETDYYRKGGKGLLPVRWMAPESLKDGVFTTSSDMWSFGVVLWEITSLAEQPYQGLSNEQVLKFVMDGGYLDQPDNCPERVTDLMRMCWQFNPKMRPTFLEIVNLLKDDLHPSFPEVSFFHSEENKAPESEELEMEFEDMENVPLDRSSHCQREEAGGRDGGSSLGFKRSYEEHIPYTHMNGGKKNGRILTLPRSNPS
T2 sequence (P06213 763-1382 partner limits assumed): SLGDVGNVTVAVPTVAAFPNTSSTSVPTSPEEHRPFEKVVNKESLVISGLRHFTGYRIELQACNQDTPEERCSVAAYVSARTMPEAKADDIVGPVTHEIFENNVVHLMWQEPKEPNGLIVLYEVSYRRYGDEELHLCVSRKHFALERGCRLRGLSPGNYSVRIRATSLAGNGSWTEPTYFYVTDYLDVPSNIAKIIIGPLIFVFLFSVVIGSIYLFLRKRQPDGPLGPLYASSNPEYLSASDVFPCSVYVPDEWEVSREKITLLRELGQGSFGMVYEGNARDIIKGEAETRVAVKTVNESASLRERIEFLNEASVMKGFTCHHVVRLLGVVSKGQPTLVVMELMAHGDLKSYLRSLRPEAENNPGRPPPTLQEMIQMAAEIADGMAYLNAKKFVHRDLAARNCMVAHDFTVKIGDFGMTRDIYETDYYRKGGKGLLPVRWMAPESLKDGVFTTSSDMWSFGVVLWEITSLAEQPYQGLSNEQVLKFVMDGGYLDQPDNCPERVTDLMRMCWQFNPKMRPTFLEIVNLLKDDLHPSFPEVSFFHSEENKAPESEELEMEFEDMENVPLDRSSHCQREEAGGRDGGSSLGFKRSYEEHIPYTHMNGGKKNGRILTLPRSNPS
As to the kind of experiment: holoIR-A competitive radioligand binding assay (scintillation proximity assay). The following applies: for Ki: IM172N22(-) mutant peptide set; for reduction in ki for hIR-A on substitution: relative to control peptide IM172N22 devoid of N-terminal phenylacetylation. Summed up:
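Membranes from HEK293 cells stably expressing C9-tagged human IR-A were used in a WGA-bead SPA competition assay in 50 mM Tris-HCl pH 7.5, 150 mM NaCl, 0.1% fatty-acid-free BSA. Ten-point 3-fold dilutions were incubated 10 h at room temperature before scintillation counting. Percent specific inhibition was calculated after nonspecific-binding correction, from three independent runs.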
(In a scintillation proximity assay essentially only radioactivity close to the scintillant gives light.)

Setting [3] is: mean of 3 runs, read-out: hIRA Binding Ki Mean.
Setting [4] is: run 1, read-out: hIRA Binding Ki Run 1.
[5] abbreviates: run 2, read-out: hIRA Binding Ki Run 2.
The mark [6] stands for this setting: run 3, read-out: hIRA Binding Ki Run 3.

Like-named read-outs stand apart in the source and are kept apart here. Positions of bridges follow the written chain, without caps; N, C: chain ends. Residues, ends and D or L forms follow the SMILES beside them.

T1 sequence (P06213 28-1370 isoform P06213-2 limits assumed): as the sequence (P06213 28-1370 isoform P06213-2 limits assumed) above
T1 sequence (P06213 763-1382 partner limits assumed): as the sequence (P06213 763-1382 partner limits assumed) above

Regarding `CC[C@H](C)[C@H](NC(=O)[C@H](CCC(N)=O)NC(=O)[C@H](C)NC(=O)[C@H](Cc1c[nH]c2ccccc12)NC(=O)[C@H](CCC(=O)O)NC(=O)[C@H](CCC(=O)O)NC(=O)[C@H](CCC(=O)O)NC(=O)[C@H](CC(C)C)NC(=O)[C@H](CO)NC(C)=O)C(=O)N[C@@H](CCC(=O)O)C(=O)N[C@H]1CSSC[C@@H](C(=O)N2CCC[C@H]2C(=O)N2CCC[C@H]2C(=O)N[C@@H](CO)C(=O)N[C@@H](CCC(=O)O)C(=O)N[C@@H](CO)C(N)=O)NC(=O)[C@H](CCCNC(=N)N)NC(=O)[C@H](C)NC(=O)[C@H](Cc2ccc(O)cc2)NC(=O)[C@H](C(C)C)NC(=O)[C@H](CCC(=O)O)NC1=O` [Peptide G15A] (Ac-SLEEEWAQIECEVYARCPPSES-NH2; disulfide 11-17), in assay [1], the “hIRA Phosph IC50 Run 1” value is on record as 601 nM, the “hIRA Phosph IC50 Run 2” value was determined as 587 nM, the “hIRA Phosph IC50 Run 3” value is recorded as 624 nM and the IC50 (usually the midpoint of a concentration-inhibition curve) is 604 nM. In assay [2] (setting [3]), the Ki (commonly a dissociation constant, usually derived from enzyme kinetics or from competition with a known ligand) stood at 99.3 nM. In addition, the Ki in assay [2] (setting [4]) is listed as 97.0 nM. The Ki in assay [2] (setting [5]) is on record as 117 nM. Also, in assay [2] (setting [6]), the Ki was determined as 83.7 nM. In assay [2], the “reduction in ki for hIR-A on substitution” value is 10 fold.

On to `CC[C@H](C)[C@H](NC(=O)[C@H](CCC(N)=O)NC(=O)[C@H](C)NC(=O)[C@H](Cc1c[nH]c2ccccc12)NC(=O)[C@H](CCC(=O)O)NC(=O)[C@H](CCC(=O)O)NC(=O)[C@H](CCC(=O)O)NC(=O)[C@H](CC(C)C)NC(=O)[C@H](CO)NC(C)=O)C(=O)N[C@@H](CCC(=O)O)C(=O)N[C@H]1CSSC[C@@H](C(=O)N2CCC[C@H]2C(=O)N2CCC[C@H]2C(=O)N[C@@H](CO)C(=O)N[C@@H](CCC(=O)O)C(=O)N[C@@H](CO)C(N)=O)NC(=O)[C@H](CCCNC(=N)N)NC(=O)CNC(=O)[C@H](Cc2ccc(O)cc2)NC(=O)[C@H](C(C)C)NC(=O)[C@H](C)NC1=O` [Peptide E12A] (Ac-SLEEEWAQIECAVYGRCPPSES-NH2; disulfide 11-17), for which, in assay [1], the “hIRA Phosph IC50 Run 1” value was found to be 343 nM, the “hIRA Phosph IC50 Run 2” value was 247 nM, the “hIRA Phosph IC50 Run 3” value is recorded as 295 nM and the IC50 amounted to 295 nM. For the same compound, the Ki in assay [2] (setting [3]) is 50.3 nM. For the same compound, the inhibitory constant (Ki) in assay [2] (setting [4]) was 44.9 nM. In addition, the inhibition constant Ki in assay [2] (setting [5]) worked out at 52.2 nM. Moreover, the Ki in assay [2] (setting [6]) is recorded as 53.9 nM.

Turning to `CC[C@H](C)[C@H](NC(=O)[C@H](CCC(N)=O)NC(=O)[C@H](C)NC(=O)[C@H](Cc1c[nH]c2ccccc12)NC(=O)[C@H](CCC(=O)O)NC(=O)[C@H](CCC(=O)O)NC(=O)[C@H](CCC(=O)O)NC(=O)[C@H](CC(C)C)NC(=O)[C@H](CO)NC(C)=O)C(=O)N[C@@H](CCC(=O)O)C(=O)N[C@H]1CSSC[C@@H](C(=O)N2CCC[C@H]2C(=O)N[C@@H](C)C(=O)N[C@@H](CO)C(=O)N[C@@H](CCC(=O)O)C(=O)N[C@@H](CO)C(N)=O)NC(=O)[C@H](CCCNC(=N)N)NC(=O)CNC(=O)[C@H](Cc2ccc(O)cc2)NC(=O)[C@H](C(C)C)NC(=O)[C@H](CCC(=O)O)NC1=O` [Peptide P19A] (Ac-SLEEEWAQIECEVYGRCPASES-NH2; disulfide 11-17), in assay [1], the “hIRA Phosph IC50 Run 1” value was 172 nM, the “hIRA Phosph IC50 Run 2” value was found to be 109 nM, the “hIRA Phosph IC50 Run 3” value is reported as 148 nM and the IC50 was determined as 143 nM. For the same compound, the inhibitory constant (Ki) in assay [2] (setting [3]) was determined as 14 nM. For the same compound, the Ki in assay [2] (setting [4]) turned out to be 13.0 nM. In addition, the Ki in assay [2] (setting [5]) stood at 12.9 nM. Also, the Ki in assay [2] (setting [6]) was 16.2 nM. Besides, the “reduction in ki for hIR-A on substitution” value in assay [2] is listed as “lower than 5 fold”.
